Measurements: PubChem BioAssay AID1845200 (Molecular Pharmacology Branch, DTP, NCI, 2023)

System: ASPS-1 complex tumor spheroids, viability
Experiment: Anticancer human tumor ASPS-1 cell line growth inhibition;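 note: spheroids exposed to agents for 7 days after 3 days of growth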;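 for viability, T/C: 100% = DMSO vehicle treated spheroids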
Conditions: for IC50: curve of first compound; for viability, T/C: stronger effect = lower value
Summary of the method: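 Complex tumor spheroids combined malignant cells with endothelial cells and mesenchymal stem cells. DNA-damaging drugs and DNA repair inhibitors were tested alone and in combination, at half-log dilutions down from clinical Cmax (top 10 microM if Cmax unknown), 0.25% DMSO final.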

[1] = second compound 1 µM, first compound 0.0316 µM
[2] = second compound 1 µM, first compound 0.1 µM
[3] = second compound 1 µM, first compound 0.316 µM
[4] = second compound 1 µM, first compound 1 µM
[5] = second compound 1 µM, first compound 3.16 µM
[6] = second compound 1 µM, first compound 10 µM
[7] = second compound 3.16 µM, first compound 0.0316 µM
[8] = second compound 3.16 µM, first compound 0.1 µM
[9] = second compound 3.16 µM, first compound 0.316 µM
[10] = second compound 3.16 µM, first compound 1 µM
[11] = second compound 3.16 µM, first compound 3.16 µM
[12] = second compound 3.16 µM, first compound 10 µM
[13] = second compound 10 µM, first compound 0.0316 µM
[14] = second compound 10 µM, first compound 0.1 µM
[15] = second compound 10 µM, first compound 0.316 µM
[16] = second compound 10 µM, first compound 1 µM
[17] = second compound 10 µM, first compound 3.16 µM
[18] = second compound 10 µM, first compound 10 µM
[19] = second compound 31.6 µM, first compound 0.0316 µM
[20] = second compound 31.6 µM, first compound 0.1 µM
[21] = second compound 31.6 µM, first compound 0.316 µM
[22] = second compound 31.6 µM, first compound 1 µM
[23] = second compound 31.6 µM, first compound 3.16 µM
[24] = second compound 31.6 µM, first compound 10 µM
[25] = second compound 100 µM, first compound 0.0316 µM
[26] = second compound 100 µM, first compound 0.1 µM
[27] = second compound 100 µM, first compound 0.316 µM
[28] = second compound 100 µM, first compound 1 µM
[29] = second compound 100 µM, first compound 3.16 µM
[30] = second compound 100 µM, first compound 10 µM

Q: With `Cc1cc(C)c(CNC(=O)c2cc(-c3ccc(CN4CCOCC4)cc3)cc3c2cnn3C2CCCC2)c(=O)[nH]1` + Cn1nnc2c(C(N)=O)ncn2c1=O as the compound, how does the IC50 (second compound 1 µM) read?
A: > 10 µM

Q: What about the IC50 (second compound 3.16 µM) of the same compound?
A: > 10 µM

Q: And the IC50 (second compound 10 µM)?
A: > 10 µM

Q: And the IC50 (second compound 31.6 µM)?
A: > 10 µM

Q: And the IC50 (second compound 100 µM)?
A: > 10 µM

Q: And the viability, T/C [1]?
A: 94.8%

Q: What about the viability, T/C [2] of the same compound?
A: 95.4%

Q: And the viability, T/C [3]?
A: 94.8%

Q: And the viability, T/C [4]?
A: 92.7%

Q: And the viability, T/C [5]?
A: 93.2%

Q: And the viability, T/C [6]?
A: 86.7%

Q: And the viability, T/C [7]?
A: 102%

Q: And the viability, T/C [8]?
A: 98.1%

Q: And the viability, T/C [9]?
A: 98.8%

Q: What about the viability, T/C [10] of the same compound?
A: 99.6%

Q: And the viability, T/C [11]?
A: 92%

Q: And the viability, T/C [12]?
A: 91.2%

Q: And the viability, T/C [13]?
A: 86.3%

Q: What about the viability, T/C [14] of the same compound?
A: 77.6%

Q: And the viability, T/C [15]?
A: 88%

Q: What about the viability, T/C [16] of the same compound?
A: 89.3%

Q: And the viability, T/C [17]?
A: 82%

Q: What about the viability, T/C [18] of the same compound?
A: 82%

Q: And the viability, T/C [19]?
A: 81.4%

Q: And the viability, T/C [20]?
A: 83.7%

Q: What about the viability, T/C [21] of the same compound?
A: 77.7%

Q: And the viability, T/C [22]?
A: 87.3%

Q: What about the viability, T/C [23] of the same compound?
A: 73.2%

Q: And the viability, T/C [24]?
A: 69.8%

Q: What about the viability, T/C [25] of the same compound?
A: 69%

Q: What about the viability, T/C [26] of the same compound?
A: 67.5%

Q: What about the viability, T/C [27] of the same compound?
A: 73.4%

Q: What about the viability, T/C [28] of the same compound?
A: 71.3%

Q: What about the viability, T/C [29] of the same compound?
A: 61.3%

Q: What about the viability, T/C [30] of the same compound?
A: 55.3%

Q: Which results are given for `Cc1sc2c(c1C)C(c1ccc(Cl)cc1)=NC(CC(=O)Nc1ccc(O)cc1)c1nnc(C)n1-2` (stereo not given) + Cn1nnc2c(C(N)=O)ncn2c1=O?
A: IC50 (second compound 1 µM): > 3 µM; IC50 (second compound 3.16 µM): > 3 µM; IC50 (second compound 10 µM): > 3 µM; IC50 (second compound 31.6 µM): > 3 µM; IC50 (second compound 100 µM): > 3 µM; viability, T/C (second compound 1 µM, first compound 0.00949 µM): 102%; viability, T/C (second compound 1 µM, first compound 0.03 µM): 110%; viability, T/C (second compound 1 µM, first compound 0.0949 µM): 114%; viability, T/C (second compound 1 µM, first compound 0.3 µM): 99.4%; viability, T/C (second compound 1 µM, first compound 0.949 µM): 91.6%; viability, T/C (second compound 1 µM, first compound 3 µM): 88.6%; viability, T/C (second compound 3.16 µM, first compound 0.00949 µM): 101%; viability, T/C (second compound 3.16 µM, first compound 0.03 µM): 108%; viability, T/C (second compound 3.16 µM, first compound 0.0949 µM): 111%; viability, T/C (second compound 3.16 µM, first compound 0.3 µM): 96.7%; viability, T/C (second compound 3.16 µM, first compound 0.949 µM): 94.9%; viability, T/C (second compound 3.16 µM, first compound 3 µM): 89.9%; viability, T/C (second compound 10 µM, first compound 0.00949 µM): 88.7%; viability, T/C (second compound 10 µM, first compound 0.03 µM): 99.6%; viability, T/C (second compound 10 µM, first compound 0.0949 µM): 99.1%; viability, T/C (second compound 10 µM, first compound 0.3 µM): 100%; viability, T/C (second compound 10 µM, first compound 0.949 µM): 97.5%; viability, T/C (second compound 10 µM, first compound 3 µM): 83.9%; viability, T/C (second compound 31.6 µM, first compound 0.00949 µM): 94.6%; viability, T/C (second compound 31.6 µM, first compound 0.03 µM): 92.3%; viability, T/C (second compound 31.6 µM, first compound 0.0949 µM): 103%; viability, T/C (second compound 31.6 µM, first compound 0.3 µM): 95.6%; viability, T/C (second compound 31.6 µM, first compound 0.949 µM): 83.9%; viability, T/C (second compound 31.6 µM, first compound 3 µM): 80.3%; viability, T/C (second compound 100 µM, first compound 0.00949 µM): 75.9%; viability, T/C (second compound 100 µM, first compound 0.03 µM): 82.6%; viability, T/C (second compound 100 µM, first compound 0.0949 µM): 84.8%; viability, T/C (second compound 100 µM, first compound 0.3 µM): 79%; viability, T/C (second compound 100 µM, first compound 0.949 µM): 70.7%; viability, T/C (second compound 100 µM, first compound 3 µM): 61.2%

Q: Which IC50 (second compound 1 µM) does the source give for `[2H]c1nc(C)nc([2H])c1-c1cc(NC[C@@H](C)c2cccc3c(C(=O)NC)ccnc23)ncn1` + Cn1nnc2c(C(N)=O)ncn2c1=O here?
A: > 10 µM

Q: What about the IC50 (second compound 3.16 µM) of the same compound?
A: > 10 µM

Q: What about the IC50 (second compound 10 µM) of the same compound?
A: > 10 µM

Q: And the IC50 (second compound 31.6 µM)?
A: > 10 µM

Q: And the IC50 (second compound 100 µM)?
A: > 10 µM

Q: What about the viability, T/C [1] of the same compound?
A: 106%

Q: And the viability, T/C [2]?
A: 100%

Q: What about the viability, T/C [3] of the same compound?
A: 98.3%

Q: And the viability, T/C [4]?
A: 101%

Q: What about the viability, T/C [5] of the same compound?
A: 95.8%

Q: And the viability, T/C [6]?
A: 99.2%

Q: What about the viability, T/C [7] of the same compound?
A: 104%

Q: What about the viability, T/C [8] of the same compound?
A: 104%

Q: And the viability, T/C [9]?
A: 103%

Q: And the viability, T/C [10]?
A: 104%

Q: And the viability, T/C [11]?
A: 101%

Q: And the viability, T/C [12]?
A: 98.3%

Q: And the viability, T/C [13]?
A: 88.4%

Q: And the viability, T/C [14]?
A: 93.2%

Q: And the viability, T/C [15]?
A: 96.4%

Q: And the viability, T/C [16]?
A: 90.1%

Q: And the viability, T/C [17]?
A: 89.5%

Q: What about the viability, T/C [18] of the same compound?
A: 89.7%

Q: And the viability, T/C [19]?
A: 79.8%

Q: What about the viability, T/C [20] of the same compound?
A: 80.2%

Q: And the viability, T/C [21]?
A: 81.1%

Q: What about the viability, T/C [22] of the same compound?
A: 79.7%

Q: And the viability, T/C [23]?
A: 78.3%

Q: What about the viability, T/C [24] of the same compound?
A: 76.4%

Q: What about the viability, T/C [25] of the same compound?
A: 74.2%

Q: What about the viability, T/C [26] of the same compound?
A: 72.5%

Q: And the viability, T/C [27]?
A: 74.5%

Q: What about the viability, T/C [28] of the same compound?
A: 66.5%

Q: What about the viability, T/C [29] of the same compound?
A: 68.4%

Q: What about the viability, T/C [30] of the same compound?
A: 65.8%
